Patent publication US10968222B2, “2-azabicyclo hexane JAK inhibitor compound” (THERAVANCE BIOPHARMA R&D IP, LLC, priority 2018, dated 2021)

Tests used:
[1] = biological target: T1, CDK9 (Homo sapiens, UniProt P50750); assay: Kinome screen, CDK9; type: binding; conditions: screened at 1 μM
T1 construct: made in house; host or cells: E. coli BL21-derived host (T7 phage) or HEK-293 cells
Procedure: (§1) Compounds 1 and C-1 were screened against other kinases to evaluate their selectivity profile.
(§2) Kinase-tagged T7 phage strains were grown in parallel in 24-well blocks in an E. coli host derived from the BL21 strain. E. coli were grown to log-phase and infected with T7 phage from a frozen stock (multiplicity of infection=0.4) and incubated with shaking at 32° C. until lysis (90-150 minutes). The lysates were centrifuged (6,000×g) and filtered (0.2 μm) to remove cell debris. The remaining kinases were produced in HEK-293 cells and subsequently tagged with DNA for qPCR detection.
(§3) Streptavidin-coated magnetic beads were treated with biotinylated small molecule ligands for 30 minutes at room temperature to generate affinity resins for kinase assays. The liganded beads were blocked with excess biotin and washed with blocking buffer (SeaBlock (Pierce), 1% BSA, 0.05% Tween 20, 1 mM DTT) to remove unbound ligand and to reduce non-specific phage binding. Binding reactions were assembled by combining kinases, liganded affinity beads, and test compounds in 1× binding buffer (20% SeaBlock, 0.17×PBS, 0.05% Tween 20, 6 mM DTT). Test compounds were prepared as 40× stocks in 100% DMSO and directly diluted into the assay. All reactions were performed in polypropylene 384-well plates in a final volume of 0.04 ml. […] The kinase concentration in the eluates was measured by qPCR. […]

[2] = tested on: IL-2/anti-CD3 stimulated IFNγ in human PBMCs; assay: Inhibition of IL-2/anti-CD3 stimulated IFNγ in human PBMCs; type: cell-based; conditions: PBMC, 24 h stimulation, ELISA, read-out: pIC50, inhibition of IL-2/anti-CD3 stimulated IFNγ (converted)
Procedure: The potency of the test compound for inhibition of interleukin-2 (IL-2)/anti-CD3 stimulated interferon gamma (IFNγ) was measured in human peripheral blood mononuclear cells (PBMCs) isolated from human whole blood (Stanford Blood Center). Because IL-2 signals through JAK, this assay provides a measure of JAK cellular potency.
(1) Human peripheral blood mononuclear cells (PBMC) were isolated from human whole blood of healthy donors using a ficoll gradient. Cells were cultured in a 37° C., 5% CO2 humidified incubator in RPMI (Life Technologies) supplemented with 10% Heat Inactivated Fetal Bovine Serum (FBS, Life Technologies), 2 mM Glutamax (Life Technologies), 25 mM HEPES (Life Technologies) and 1× Pen/Strep (Life Technologies). Cells were seeded at 200,000 cells/well in media (50 μL) and cultured for 1 h. The compound was serially diluted in DMSO and then diluted another 500-fold (to a 2× final assay concentration) in media. […]
(2) After cytokine stimulation, cells were centrifuged at 500 g for 5 min and supernatants removed and frozen at −80° C. To determine the inhibitory potency of test compounds in response to IL-2/anti-CD3, supernatant IFNγ concentrations were measured via ELISA (R&D Systems). IC50 values were determined from analysis of the inhibition curves of concentration of IFNγ vs compound concentration. Data are expressed as pIC50 (negative decadic logarithm IC50) values.

[3] = biological target: T2, JAK3 (Homo sapiens, UniProt P52333); assay: Biochemical JAK kinase assay (LanthaScreen), JAK3; conditions: converted from pIC50 by Cheng-Prusoff; 1.6 μM ATP; read-out: JAK 3 pKi (converted)
T2 construct: GST; purchased Life Technologies
T2 sequence (P52333 whole entry): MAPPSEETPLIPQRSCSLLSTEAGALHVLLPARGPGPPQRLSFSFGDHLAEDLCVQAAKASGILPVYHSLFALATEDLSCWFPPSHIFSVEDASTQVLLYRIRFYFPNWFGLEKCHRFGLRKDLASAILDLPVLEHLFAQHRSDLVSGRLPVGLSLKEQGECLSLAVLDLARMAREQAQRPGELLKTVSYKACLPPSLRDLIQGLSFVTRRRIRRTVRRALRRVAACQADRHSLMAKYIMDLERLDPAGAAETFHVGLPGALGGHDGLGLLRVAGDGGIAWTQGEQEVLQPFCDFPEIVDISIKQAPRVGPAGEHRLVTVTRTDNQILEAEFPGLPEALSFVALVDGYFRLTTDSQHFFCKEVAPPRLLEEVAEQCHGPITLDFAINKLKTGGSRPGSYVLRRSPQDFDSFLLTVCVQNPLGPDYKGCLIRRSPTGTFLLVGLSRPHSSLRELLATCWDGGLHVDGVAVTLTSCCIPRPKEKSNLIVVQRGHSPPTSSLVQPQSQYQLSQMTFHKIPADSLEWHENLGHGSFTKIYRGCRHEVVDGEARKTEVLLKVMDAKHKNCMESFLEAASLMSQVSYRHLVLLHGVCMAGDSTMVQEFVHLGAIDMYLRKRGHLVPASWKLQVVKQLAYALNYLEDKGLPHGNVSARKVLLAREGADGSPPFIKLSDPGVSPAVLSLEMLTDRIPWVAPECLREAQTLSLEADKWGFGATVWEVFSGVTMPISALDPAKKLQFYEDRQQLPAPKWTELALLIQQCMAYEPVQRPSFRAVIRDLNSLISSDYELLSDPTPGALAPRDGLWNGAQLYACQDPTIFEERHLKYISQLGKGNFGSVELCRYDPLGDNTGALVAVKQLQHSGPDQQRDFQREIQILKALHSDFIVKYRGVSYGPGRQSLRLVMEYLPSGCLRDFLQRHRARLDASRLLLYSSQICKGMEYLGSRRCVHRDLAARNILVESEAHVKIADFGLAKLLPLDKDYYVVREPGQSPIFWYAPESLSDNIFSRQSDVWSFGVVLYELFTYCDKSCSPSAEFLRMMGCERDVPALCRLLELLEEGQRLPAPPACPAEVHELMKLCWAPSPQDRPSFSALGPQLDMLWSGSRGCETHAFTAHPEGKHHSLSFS
Procedure: A panel of four LanthaScreen JAK biochemical assays (JAK1, 2, 3 and Tyk2) were carried in a common kinase reaction buffer (50 mM HEPES, pH 7.5, 0.01% Brij-35, 10 mM MgCl2, and 1 mM EGTA). Recombinant GST-tagged JAK enzymes and a GFP-tagged STAT1 peptide substrate were obtained from Life Technologies.
Serially diluted compound was pre-incubated with each of the four JAK enzymes and the substrate in white 384-well microplates (Corning) at ambient temperature for 1 h. ATP was subsequently added to initiate the kinase reactions in 10 μL total volume, with 1% DMSO. […] The plates were allowed to incubate at ambient temperature for 1 h before being read on the EnVision reader (Perkin Elmer). Emission ratio signals (520 nm/495 nm) were recorded and utilized to calculate the percent inhibition values based on DMSO and background controls.
For dose-response analysis, percent inhibition data were plotted vs. compound concentrations, and IC50 values were determined from a 4-parameter robust fit model with the Prism software (GraphPad Software). Results were expressed as pIC50 (negative logarithm of IC50) and subsequently converted to pKi (negative logarithm of dissociation constant, Ki) using the Cheng-Prusoff equation.

[4] = biological target: T3, CDK7 (Homo sapiens, UniProt P50613); assay: Kinome screen, CDK7; type: binding; conditions: screened at 1 μM
T3 construct: made in house; host or cells: E. coli BL21-derived host (T7 phage) or HEK-293 cells
T3 sequence (P50613 whole entry): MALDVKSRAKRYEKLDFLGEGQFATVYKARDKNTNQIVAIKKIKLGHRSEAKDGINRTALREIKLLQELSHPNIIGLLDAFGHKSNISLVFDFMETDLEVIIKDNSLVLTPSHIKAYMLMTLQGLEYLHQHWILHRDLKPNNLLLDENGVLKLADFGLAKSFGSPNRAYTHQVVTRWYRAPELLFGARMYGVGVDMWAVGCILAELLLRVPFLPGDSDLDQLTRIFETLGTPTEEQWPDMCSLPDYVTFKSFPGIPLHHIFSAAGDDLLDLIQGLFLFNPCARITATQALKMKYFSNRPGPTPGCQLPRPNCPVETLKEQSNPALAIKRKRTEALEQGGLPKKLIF
Procedure: as §1, §2, §3

[5] = biological target: T4, ALK (Homo sapiens, UniProt Q9UM73); assay: Kinome screen, ALK; type: binding; conditions: screened at 1 μM
T4 construct: made in house; host or cells: E. coli BL21-derived host (T7 phage) or HEK-293 cells
T4 sequence (Q9UM73 19-1620): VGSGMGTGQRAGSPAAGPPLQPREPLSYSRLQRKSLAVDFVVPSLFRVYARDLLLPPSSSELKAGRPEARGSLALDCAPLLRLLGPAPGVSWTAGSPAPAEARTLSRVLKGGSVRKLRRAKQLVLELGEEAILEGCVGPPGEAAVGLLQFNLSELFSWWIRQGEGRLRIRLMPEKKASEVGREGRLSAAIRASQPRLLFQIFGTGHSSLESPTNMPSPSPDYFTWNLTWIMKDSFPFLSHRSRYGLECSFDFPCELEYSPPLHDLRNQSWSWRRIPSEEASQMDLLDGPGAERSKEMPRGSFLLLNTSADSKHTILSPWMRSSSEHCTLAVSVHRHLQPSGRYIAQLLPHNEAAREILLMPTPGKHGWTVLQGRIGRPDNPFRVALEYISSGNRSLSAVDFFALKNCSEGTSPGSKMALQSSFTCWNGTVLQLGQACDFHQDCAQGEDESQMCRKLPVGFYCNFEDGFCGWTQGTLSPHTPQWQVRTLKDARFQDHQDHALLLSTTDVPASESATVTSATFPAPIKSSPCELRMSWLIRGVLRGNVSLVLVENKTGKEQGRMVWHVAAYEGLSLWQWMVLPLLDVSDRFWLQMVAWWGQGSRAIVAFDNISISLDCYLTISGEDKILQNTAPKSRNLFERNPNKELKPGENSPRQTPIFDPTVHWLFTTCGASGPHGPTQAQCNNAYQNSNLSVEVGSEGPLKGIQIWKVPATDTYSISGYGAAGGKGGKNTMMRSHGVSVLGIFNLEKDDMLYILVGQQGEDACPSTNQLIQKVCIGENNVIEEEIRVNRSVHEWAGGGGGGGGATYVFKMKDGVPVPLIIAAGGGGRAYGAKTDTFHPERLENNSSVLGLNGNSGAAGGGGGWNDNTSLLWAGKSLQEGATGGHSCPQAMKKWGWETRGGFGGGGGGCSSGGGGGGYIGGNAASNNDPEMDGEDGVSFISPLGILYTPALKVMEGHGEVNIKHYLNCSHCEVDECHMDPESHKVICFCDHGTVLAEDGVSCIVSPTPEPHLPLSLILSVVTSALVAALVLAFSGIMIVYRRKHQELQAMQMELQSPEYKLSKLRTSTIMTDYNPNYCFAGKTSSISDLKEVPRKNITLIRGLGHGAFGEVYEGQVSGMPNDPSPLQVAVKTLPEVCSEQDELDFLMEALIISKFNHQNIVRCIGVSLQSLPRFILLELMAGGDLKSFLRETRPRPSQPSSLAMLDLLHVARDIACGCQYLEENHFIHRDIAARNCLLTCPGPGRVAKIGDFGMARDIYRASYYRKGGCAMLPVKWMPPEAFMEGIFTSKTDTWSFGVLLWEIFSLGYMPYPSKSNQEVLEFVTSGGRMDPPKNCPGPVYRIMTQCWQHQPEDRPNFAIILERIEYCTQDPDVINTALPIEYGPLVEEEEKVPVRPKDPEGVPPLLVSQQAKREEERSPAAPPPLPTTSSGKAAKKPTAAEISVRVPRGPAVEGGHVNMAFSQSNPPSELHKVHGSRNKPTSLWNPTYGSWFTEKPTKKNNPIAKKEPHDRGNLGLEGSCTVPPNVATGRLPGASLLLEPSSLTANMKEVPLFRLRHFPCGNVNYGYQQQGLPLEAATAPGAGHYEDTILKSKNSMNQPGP
Procedure: as §1, §2, §3

T1 sequence (P50750 whole entry): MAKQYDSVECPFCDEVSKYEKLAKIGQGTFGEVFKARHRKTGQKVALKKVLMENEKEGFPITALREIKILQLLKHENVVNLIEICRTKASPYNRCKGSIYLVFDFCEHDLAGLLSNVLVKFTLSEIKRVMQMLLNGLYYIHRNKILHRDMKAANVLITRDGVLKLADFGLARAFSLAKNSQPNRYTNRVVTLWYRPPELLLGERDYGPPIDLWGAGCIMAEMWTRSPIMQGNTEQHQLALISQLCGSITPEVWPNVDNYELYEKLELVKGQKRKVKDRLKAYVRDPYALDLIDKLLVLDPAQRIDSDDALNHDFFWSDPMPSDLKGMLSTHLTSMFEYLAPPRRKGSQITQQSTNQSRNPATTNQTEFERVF

CCc1cc(O)c(F)cc1-c1cc(F)c2c(-c3nc4c([nH]3)CCN(C(=O)[C@]35C[C@H]3CCN5)C4)n[nH]c2c1 [Compound 1, (1S,5R)-2-azabicyclo[3.1.0]hexan-1-yl(2-(6-(2-ethyl-5-fluoro-4-hydroxyphenyl)-4-fluoro-1H-indazol-3-yl)-6,7-dihydro-3H-imidazo[4,5-c]pyridin-5(4H)-yl)methanone]
inhibition at 1 µM [1]: 13% | IC50 [2]: 200 nM | Ki [3]: 0.251 nM | inhibition at 1 µM [4]: 82% | inhibition at 1 µM [5]: 79%
